Test results published in patent US20220142995A1, “DUAL ATM AND DNA-PK INHIBITORS FOR USE IN ANTI-TUMOR THERAPY” (XRAD Therapeutics, Inc., priority 2019, published 2022).
Values joined by “and” are separate entries in the source; they are usually repeats but may differ in a detail not shown here. Identical values can stand only once. Counter-ions that a name gives are not always drawn.

Columns and labels:
[1] = biological target: T1, ATM (Homo sapiens, UniProt Q13315); test: ATM in Cell Western assay (pKAP1, etoposide-treated MCF-7 cells); format: cell-based; conditions: etoposide 100 μM, 1 h, pKAP1 readout
T1 construct: endogenous in cells; host or cells: MCF-7
Experimental: ATM in Cell Western Assay:
In the morning, MCF-7 breast cancer cells were placed in a 384 well plate at the density of 10,000 cells/well (Corning, #356663), 25 μL cells per well. The following day, compounds were added to the plate using a pin tool (Echo 550) to a final concentration of 1 μM through a 3-fold serial dilution (a total of 10 doses). Then, etoposide (Sigma, #E1383) was added to a final concentration of 100 μM. The plate was incubated at 37° C. for 1 h, and the cells were fixed by the addition of 25 μL of fixing solution (8% paraformaldehyde) for 20 minutes at ambient temperature. Cells were permeabilized by 5 washes with 1×PBS (phosphate buffered saline) containing 0.1% Triton X-100; each wash was 5 minutes long. Cells were blocked by adding 50 μL of Odyssey Blocking Buffer (LI-COR, #927-40000) in 384 well plates for 1.5 hours with shaking at ambient temperature. Blocking buffer was then removed, and 20 μL of anti-pKAP1 antibody (Bethyl Laboratories, #A300-767A) (1/2000) solution were added to each well of 384-well plate. The plate was incubated overnight at 4° C. and then washed 5 times with 1×PBST (1×PBS containing 0.1% Tween-20). A secondary antibody (IRDye 800CW Goat anti-Rabbit IgG, LI-COR, #926-32211) (1/5,000) solution containing DNA stain DRAQ5 (CST, #4084L) (1/5,000) (20 μL) was added to each well in the plate, and the plate was incubated 1 hour with gentle shaking in the dark. Cells were washed 5 times with 1×PBST (1×PBS containing 0.1% Tween-20) at ambient temperature with gentle shaking in the dark. After the last wash, the wash solution was removed, the plate was inverted upside down onto a thin paper towel and centrifuged at 1000 rpm for 1 min to absorb all wash buffer. The bottom of the plate was cleaned with a moist, lint-free paper. The plate was immediately scanned using ODYSSEY CLx (LI-COR).

[2] = biological target: T2, DNA-PK (Homo sapiens, UniProt P78527); test: DNA-PK enzyme-linked immunosorbent assay; format: biochemical; conditions: ATP 20 μM, GST-p53 substrate
T2 construct: purchased Invitrogen PR9107A
Experimental: DNA-PK Enzyme-Linked Immunosorbent Assay:
On day one, a 96-well plate (ThermoFisher, Cat #: 442404) was coated with GST-p53 (1-101) peptide (purified by Pharmaron, BCS department) by diluting 3 μg of GST-p53 in each well with 0.1 M Na2CO3/NaHCO3 (pH 9.6). The plate was incubated overnight at 4° C. On the second day, the coating buffer was removed, and the plate was washed twice with PBST (1×PBS containing 0.1% Tween-20). The DNA-PK enzyme solution (Invitrogen, #PR9107A; the final DNA-PK concentration: 0.1 μg/mL) was then added. The compounds were serially diluted to the final maximal concentration of 100 nM (3 fold series dilution, a total of 10 doses), and an ATP solution (the final ATP concentration: 20 μM) was added to the plate. Incubate the plate at 25° C. for 1 hour. The plate was washed three times with PBST (1×PBS containing 0.1% Tween-20) and blocked with a solution of PBST and 1% BSA at 4° C. overnight. The third day, the plate was washed four times with PBST (1×PBS containing 0.1% Tween-20). Anti-phospho-p53 primary antibody (cell signaling Technology, #9286, Phospho-p53 (Ser15) (16G8) Mouse mAb) (1/1000) was added to each well. The plate was sealed, incubated 1 h at 37° C., and washed four times with PBST (1×PBS containing 0.1% Tween-20). An HRP-linked secondary antibody (Cell signaling Technology, #7076, Anti-mouse IgG, HRP-linked Antibody) (1/1000) (100 μL) was added to each well. The plate was sealed with tape, incubated 30 min at 37° C., and washed four times with PBST (1×PBS containing 0.1% Tween-20). At this time, 100 μL of TMB (Cell signaling Technology, #7004) substrate were added to each well. The plate was sealed with tape and incubated the plate 10 min at 37° C. Stop solution (Cell signaling Technology, #7002) (100 μL) was added to each well, and the plate was subjected to the absorption detection at 450 nm.

[3] = biological target: T3, PI3Kδ (Homo sapiens, UniProt O00329); test: PI3Kδ biochemical assay (ADP-Glo); conditions: second value of PI3K-α/δ cell; ATP 10 μM
T3 construct: purchased ThermoFisher PV6451
Experimental: PI3Kα and PI3Kδ Biochemical Assay:
PI3K[…] and PI3K[…] Kinase reactions were performed in a 5 μL volume in low-volume 384-well plates. Typically, PerkinElmer model 6008280 plates were used. The 1× kinase reaction buffer consisted of 50 mM HEPES pH 7.5, 3 mM MgCl2, 0.03% CHAPS, 1 mM EGTA, 100 mM NaCl, and 2 mM DTT. PI3K[…] (ThermoFisher, #PV4788; the final PI3K[…] concentration: 120 ng/mL) or PI3K[…] enzyme solution (ThermoFisher, #PV6451; the final PI3K[…] concentration: 250 ng/mL) was added to the plate, compounds were serially diluted to the final maximal concentration of 100 nM (3 fold series dilution, a total of 10 doses), and the PIP2:3PS (the final concentration: 10 µg/mL) and ATP solution (the final ATP concentration: 10 μM) was added to the 384-well plate. The plate was incubated at 25° C. for 1 hour. ADP-Glo reagent buffer (5 μL) was added to each well. The plate was sealed and incubated for 40 min at 25° C. ADP-Glo detection buffer (10 μL) was added to each well, and the plate was incubated for 40 min at 25° C. and read on a plate reader configured for Luminescence.

T1 sequence (Q13315 whole entry): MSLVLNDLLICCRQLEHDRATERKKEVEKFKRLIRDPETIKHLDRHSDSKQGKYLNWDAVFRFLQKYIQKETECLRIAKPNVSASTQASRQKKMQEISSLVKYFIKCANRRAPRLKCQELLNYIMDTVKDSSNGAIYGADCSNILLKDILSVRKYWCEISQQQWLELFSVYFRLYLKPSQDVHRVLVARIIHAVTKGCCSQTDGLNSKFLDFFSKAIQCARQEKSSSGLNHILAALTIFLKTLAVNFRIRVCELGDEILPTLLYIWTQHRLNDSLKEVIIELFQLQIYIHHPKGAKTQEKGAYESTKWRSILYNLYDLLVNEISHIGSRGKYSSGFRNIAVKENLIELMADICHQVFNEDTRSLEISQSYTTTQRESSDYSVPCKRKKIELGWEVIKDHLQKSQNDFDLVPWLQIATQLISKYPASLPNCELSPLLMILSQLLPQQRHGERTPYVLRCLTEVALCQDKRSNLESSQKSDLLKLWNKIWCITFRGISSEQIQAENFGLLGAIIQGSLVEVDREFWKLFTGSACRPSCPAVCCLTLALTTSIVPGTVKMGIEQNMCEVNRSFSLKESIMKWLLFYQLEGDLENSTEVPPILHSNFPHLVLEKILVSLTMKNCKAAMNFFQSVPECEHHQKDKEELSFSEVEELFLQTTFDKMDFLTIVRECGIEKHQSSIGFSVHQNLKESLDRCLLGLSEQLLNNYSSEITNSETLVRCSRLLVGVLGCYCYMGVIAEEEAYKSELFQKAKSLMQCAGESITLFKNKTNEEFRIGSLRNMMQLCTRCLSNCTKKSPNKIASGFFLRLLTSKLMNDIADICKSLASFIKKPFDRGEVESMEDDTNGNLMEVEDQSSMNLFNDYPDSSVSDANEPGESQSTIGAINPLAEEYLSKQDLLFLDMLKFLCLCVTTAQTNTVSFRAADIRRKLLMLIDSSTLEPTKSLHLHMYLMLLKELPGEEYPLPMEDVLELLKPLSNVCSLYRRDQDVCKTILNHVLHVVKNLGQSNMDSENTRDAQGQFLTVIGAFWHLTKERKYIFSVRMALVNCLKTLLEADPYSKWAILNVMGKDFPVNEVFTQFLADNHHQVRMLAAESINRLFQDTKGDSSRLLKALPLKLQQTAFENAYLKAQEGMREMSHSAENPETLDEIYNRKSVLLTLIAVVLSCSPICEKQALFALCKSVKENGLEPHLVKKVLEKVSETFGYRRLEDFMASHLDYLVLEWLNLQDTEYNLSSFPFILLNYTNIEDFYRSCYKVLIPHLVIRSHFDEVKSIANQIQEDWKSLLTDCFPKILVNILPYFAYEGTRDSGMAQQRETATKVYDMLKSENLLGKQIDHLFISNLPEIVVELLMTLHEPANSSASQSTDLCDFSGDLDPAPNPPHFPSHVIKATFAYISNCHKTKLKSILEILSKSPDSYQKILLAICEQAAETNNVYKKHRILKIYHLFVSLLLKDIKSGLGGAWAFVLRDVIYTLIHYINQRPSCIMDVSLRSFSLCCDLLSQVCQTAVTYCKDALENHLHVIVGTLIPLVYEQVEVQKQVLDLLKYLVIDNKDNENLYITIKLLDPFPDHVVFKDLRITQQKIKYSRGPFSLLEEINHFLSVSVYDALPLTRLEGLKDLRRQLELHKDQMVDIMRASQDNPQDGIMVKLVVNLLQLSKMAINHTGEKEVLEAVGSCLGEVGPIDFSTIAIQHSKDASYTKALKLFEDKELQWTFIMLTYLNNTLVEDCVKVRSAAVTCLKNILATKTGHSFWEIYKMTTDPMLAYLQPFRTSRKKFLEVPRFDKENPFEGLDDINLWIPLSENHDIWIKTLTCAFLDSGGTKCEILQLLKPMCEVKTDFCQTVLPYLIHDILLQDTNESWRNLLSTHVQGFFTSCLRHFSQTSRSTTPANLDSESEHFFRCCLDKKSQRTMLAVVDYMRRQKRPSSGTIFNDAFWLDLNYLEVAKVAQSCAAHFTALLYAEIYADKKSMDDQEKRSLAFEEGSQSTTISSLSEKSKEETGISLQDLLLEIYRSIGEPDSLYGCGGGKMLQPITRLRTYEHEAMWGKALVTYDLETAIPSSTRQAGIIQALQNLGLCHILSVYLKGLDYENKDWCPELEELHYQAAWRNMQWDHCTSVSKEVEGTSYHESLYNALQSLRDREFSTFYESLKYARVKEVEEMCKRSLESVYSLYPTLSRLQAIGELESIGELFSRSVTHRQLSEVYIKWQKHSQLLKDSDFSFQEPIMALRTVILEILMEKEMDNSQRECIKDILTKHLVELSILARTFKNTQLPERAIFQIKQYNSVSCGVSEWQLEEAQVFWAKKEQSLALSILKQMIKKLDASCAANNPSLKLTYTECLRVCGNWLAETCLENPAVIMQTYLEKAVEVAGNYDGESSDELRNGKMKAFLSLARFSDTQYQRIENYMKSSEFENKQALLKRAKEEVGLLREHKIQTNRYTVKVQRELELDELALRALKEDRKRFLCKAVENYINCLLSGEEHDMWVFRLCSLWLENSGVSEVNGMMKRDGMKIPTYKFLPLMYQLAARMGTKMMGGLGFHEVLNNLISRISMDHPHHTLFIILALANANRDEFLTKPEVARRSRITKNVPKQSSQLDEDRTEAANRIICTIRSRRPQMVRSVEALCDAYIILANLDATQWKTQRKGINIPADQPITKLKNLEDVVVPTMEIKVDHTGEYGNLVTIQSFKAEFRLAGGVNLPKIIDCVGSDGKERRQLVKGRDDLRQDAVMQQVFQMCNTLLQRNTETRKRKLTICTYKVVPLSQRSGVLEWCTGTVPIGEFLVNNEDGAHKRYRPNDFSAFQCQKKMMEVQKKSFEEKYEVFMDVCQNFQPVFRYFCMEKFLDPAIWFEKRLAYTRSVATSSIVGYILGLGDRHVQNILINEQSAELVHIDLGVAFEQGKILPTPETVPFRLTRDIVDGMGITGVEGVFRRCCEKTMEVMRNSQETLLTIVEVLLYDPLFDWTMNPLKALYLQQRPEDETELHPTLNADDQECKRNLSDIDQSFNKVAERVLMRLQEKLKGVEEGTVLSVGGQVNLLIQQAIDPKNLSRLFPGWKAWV
T3 sequence (O00329 whole entry): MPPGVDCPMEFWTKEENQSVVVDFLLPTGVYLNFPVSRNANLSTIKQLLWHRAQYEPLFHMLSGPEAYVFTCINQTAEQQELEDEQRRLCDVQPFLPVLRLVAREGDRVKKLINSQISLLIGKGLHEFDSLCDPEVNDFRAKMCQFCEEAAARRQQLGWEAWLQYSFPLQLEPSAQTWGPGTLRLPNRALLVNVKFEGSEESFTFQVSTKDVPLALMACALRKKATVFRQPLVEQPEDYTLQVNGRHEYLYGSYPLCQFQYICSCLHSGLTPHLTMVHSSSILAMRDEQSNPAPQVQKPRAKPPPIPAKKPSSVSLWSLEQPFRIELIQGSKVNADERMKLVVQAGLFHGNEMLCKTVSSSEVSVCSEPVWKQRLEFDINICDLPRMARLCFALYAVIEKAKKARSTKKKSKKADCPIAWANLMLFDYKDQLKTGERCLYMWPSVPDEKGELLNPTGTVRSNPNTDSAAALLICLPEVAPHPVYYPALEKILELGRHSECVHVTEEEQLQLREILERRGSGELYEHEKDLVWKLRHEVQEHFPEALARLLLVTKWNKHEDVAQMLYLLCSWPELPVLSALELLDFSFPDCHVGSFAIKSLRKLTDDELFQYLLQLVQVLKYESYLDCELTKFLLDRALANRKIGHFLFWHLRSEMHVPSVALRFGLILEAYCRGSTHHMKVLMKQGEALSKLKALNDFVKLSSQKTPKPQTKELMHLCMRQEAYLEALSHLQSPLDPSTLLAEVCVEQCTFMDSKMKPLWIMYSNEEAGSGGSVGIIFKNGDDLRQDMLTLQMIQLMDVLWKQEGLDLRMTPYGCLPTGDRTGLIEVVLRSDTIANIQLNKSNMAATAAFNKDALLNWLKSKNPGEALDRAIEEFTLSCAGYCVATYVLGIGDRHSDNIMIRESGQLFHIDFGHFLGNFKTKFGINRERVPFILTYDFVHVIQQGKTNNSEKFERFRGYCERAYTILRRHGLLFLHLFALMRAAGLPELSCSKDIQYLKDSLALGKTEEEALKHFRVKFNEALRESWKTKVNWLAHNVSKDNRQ
T3 sequence (P27986 whole entry partner): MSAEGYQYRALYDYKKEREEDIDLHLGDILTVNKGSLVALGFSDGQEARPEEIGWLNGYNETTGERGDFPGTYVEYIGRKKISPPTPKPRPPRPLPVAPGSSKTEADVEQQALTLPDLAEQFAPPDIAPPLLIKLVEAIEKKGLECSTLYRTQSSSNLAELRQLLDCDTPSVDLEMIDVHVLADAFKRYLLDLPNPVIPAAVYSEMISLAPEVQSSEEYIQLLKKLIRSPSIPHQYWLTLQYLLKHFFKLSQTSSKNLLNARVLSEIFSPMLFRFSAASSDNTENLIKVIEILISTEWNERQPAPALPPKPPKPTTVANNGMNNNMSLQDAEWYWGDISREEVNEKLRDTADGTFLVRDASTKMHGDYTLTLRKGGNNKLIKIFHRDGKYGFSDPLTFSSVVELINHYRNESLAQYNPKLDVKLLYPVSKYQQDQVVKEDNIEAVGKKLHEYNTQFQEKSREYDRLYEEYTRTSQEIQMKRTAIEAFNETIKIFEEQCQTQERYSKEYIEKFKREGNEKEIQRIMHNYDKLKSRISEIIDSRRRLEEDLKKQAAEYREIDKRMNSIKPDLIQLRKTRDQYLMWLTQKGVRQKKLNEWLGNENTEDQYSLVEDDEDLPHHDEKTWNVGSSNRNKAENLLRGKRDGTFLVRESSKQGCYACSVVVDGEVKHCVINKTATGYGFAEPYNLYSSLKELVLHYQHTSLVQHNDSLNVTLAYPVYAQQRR

SMILES | IC50 [1] | IC50 [2] | IC50 [3] [nM]
CC(C)NCCOc1ncc(-c2cc3c4c(cnc3cc2F)N(C)C(=O)C42CCC2)cc1NS(C)(=O)=O [Compound 569, N-(5-(7′-Fluoro-3′-methyl-2′-oxo-2′,3′-dihydrospiro[cyclobutane-1,1′-pyrrolo[2,3-c]quinolin]-8′-yl)-2-(2-(isopropylamino)ethoxy)pyridin-3-yl)methanesulfonamide] | 2.43 nM | 0.63 nM | 73
CC[C@H]1C[C@]2(C1)C(=O)N(C)c1cnc3cc(F)c(-c4cnc(OCCNC(C)C)c(NS(C)(=O)=O)c4)cc3c12 [Compound 573, cis-N-(5-(3-Ethyl-7′-fluoro-3′-methyl-2′-oxo-2′,3′-dihydrospiro[cyclobutane-1,1′-pyrrolo[2,3-c]quinolin]-8′-yl)-2-(2-(isopropylamino)ethoxy)pyridin-3-yl)methanesulfonamide] | 0.92 nM | 0.3 nM | 12
CC(C)NCCOc1ncc(-c2cc3c(cc2F)ncc2c3[C@]3(C[C@@H](OCc4ccccc4)C3)C(=O)N2C)cc1NS(C)(=O)=O [Compound 567, trans-N-(5-(3-(Benzyloxy)-7′-fluoro-3′-methyl-2′-oxo-2′,3′-dihydrospiro[cyclobutane-1,1′-pyrrolo[2,3-c]quinolin]-8′-yl)-2-(2-(isopropylamino)ethoxy)pyridin-3-yl)methanesulfonamide] | 11 nM | 2.7 nM | > 100
CC(C)NCCOc1ncc(-c2cc3c4c(cnc3cc2F)N(C)C(=O)C42CN(C(C)C)C2)cc1NS(C)(=O)=O [Compound 571, N-(5-(7′-Fluoro-1-isopropyl-3′-methyl-2′-oxo-2′,3′-dihydrospiro[azetidine-3,1′-pyrrolo[2,3-c]quinolin]-8′-yl)-2-(2-(isopropylamino)ethoxy)pyridin-3-yl)methanesulfonamide] | 5.76 nM and 5.51 nM | 0.67 nM and 0.94 nM | –
CC(C)NCCOc1ncc(-c2cc3c4c(cnc3cc2F)N(C)C(=O)C42CCC2)cc1NS(=O)(=O)C(C)C [Compound 568, N-(5-(7′-Fluoro-3′-methyl-2′-oxo-2′,3′-dihydrospiro[cyclobutane-1,1′-pyrrolo[2,3-c]quinolin]-8′-yl)-2-(2-(isopropylamino)ethoxy)pyridin-3-yl)propane-2-sulfonamide] | 2.88 nM | 0.79 nM | 54
CC(C)NCCOc1ncc(-c2cc3c(cc2F)ncc2c3[C@]3(C[C@H](OCc4ccccc4)C3)C(=O)N2C)cc1NS(C)(=O)=O [Compound 572, cis-N-(5-(3-(Benzyloxy)-7′-fluoro-3′-methyl-2′-oxo-2′,3′-dihydrospiro[cyclobutane-1,1′-pyrrolo[2,3-c]quinolin]-8′-yl)-2-(2-(isopropylamino)ethoxy)pyridin-3-yl)methanesulfonamide] | 1.05 nM | 0.32 nM | 15
CC[C@H]1C[C@@]2(C1)C(=O)N(C)c1cnc3cc(F)c(-c4cnc(OCCNC(C)C)c(NS(C)(=O)=O)c4)cc3c12 [Compound 566, trans-N-(5-(3-Ethyl-7′-fluoro-3′-methyl-2′-oxo-2′,3′-dihydrospiro[cyclobutane-1,1′-pyrrolo[2,3-c]quinolin]-8′-yl)-2-(2-(isopropylamino)ethoxy)pyridin-3-yl)methanesulfonamide] | 6.72 nM | 1.03 nM | 14
CCS(=O)(=O)Nc1cc(-c2cc3c4c(cnc3cc2F)N(C)C(=O)C42CCC2)cnc1OCCNC(C)C [Compound 570, N-(5-(7′-Fluoro-3′-methyl-2′-oxo-2′,3′-dihydrospiro[cyclobutane-1,1′-pyrrolo[2,3-c]quinolin]-8′-yl)-2-(2-(isopropylamino)ethoxy)pyridin-3-yl)ethanesulfonamide] | 3.6 nM | 0.63 nM | 55
CN1C(=O)C2(CCC2)c2c1cnc1ccc(-c3cnc(N4CC(N(C)C)C4)c(NS(C)(=O)=O)c3)cc21 [Compound 574, N-(2-(3-(Dimethylamino)azetidin-1-yl)-5-(3′-methyl-2′-oxo-2′,3′-dihydrospiro[cyclobutane-1,1′-pyrrolo[2,3-c]quinolin]-8′-yl)pyridin-3-yl)methanesulfonamide hydrochloride] | 1.52 nM | 1.03 nM | 3
